In US7642270B2, “5-oxo-5,8-dihydro-pyrido-pyrimidine as inhibitors of c-fms kinase” (Janssen Pharmaceutica N.V., priority 2005, dated 2010) one finds IC50 data, which are given here for 27 molecules.

pIC50: −log10 of the molar value. Some results are limits rather than exact numbers.

c-fms, sequence (P07333 20-972): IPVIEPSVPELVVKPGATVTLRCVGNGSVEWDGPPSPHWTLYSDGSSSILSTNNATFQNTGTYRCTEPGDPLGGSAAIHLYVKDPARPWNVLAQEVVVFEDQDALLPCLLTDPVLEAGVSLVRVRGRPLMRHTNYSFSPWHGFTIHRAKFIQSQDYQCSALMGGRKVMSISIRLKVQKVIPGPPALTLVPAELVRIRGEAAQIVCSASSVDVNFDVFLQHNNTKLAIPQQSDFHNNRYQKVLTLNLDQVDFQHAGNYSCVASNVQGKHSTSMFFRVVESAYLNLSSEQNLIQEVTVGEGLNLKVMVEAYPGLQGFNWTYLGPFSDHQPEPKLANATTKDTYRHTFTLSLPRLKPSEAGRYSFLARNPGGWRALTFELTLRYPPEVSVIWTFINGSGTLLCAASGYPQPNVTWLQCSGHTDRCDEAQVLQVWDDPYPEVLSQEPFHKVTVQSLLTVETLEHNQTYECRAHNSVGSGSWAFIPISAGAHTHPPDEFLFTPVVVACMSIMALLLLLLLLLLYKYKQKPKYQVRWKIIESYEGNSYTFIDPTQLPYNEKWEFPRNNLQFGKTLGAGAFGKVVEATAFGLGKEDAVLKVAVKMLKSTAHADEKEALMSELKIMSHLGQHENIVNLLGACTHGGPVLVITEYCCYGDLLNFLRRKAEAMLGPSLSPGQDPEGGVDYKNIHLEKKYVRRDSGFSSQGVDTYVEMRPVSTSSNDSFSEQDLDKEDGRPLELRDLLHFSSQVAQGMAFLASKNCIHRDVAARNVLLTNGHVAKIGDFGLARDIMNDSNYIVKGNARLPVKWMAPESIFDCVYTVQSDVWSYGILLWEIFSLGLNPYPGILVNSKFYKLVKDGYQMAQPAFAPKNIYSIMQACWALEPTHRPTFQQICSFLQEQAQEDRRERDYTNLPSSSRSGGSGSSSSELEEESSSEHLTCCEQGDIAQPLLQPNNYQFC

The target of this experiment is c-fms (Homo sapiens, UniProt P07333). Kind of experiment: c-fms autophosphorylation, fluorescence polarization competition immunoassay. Format: biochemical. Particulars: 10 nM c-fms, 1 mM ATP, 5 mM MgCl2, 45 min room temperature; averages of three independent measurements; read-out: c-fms Autophosphorylation IC50. The method, then:
Autophosphorylation, Fluorescence Polarization Competition Immunoassay
The assay buffer used was 100 mM 4-(2-hydroxyethyl)piperazine 1-ethanesulfonic acid (HEPES), pH 7.5, 1 mM 1,4-dithio-DL-threitol (DTT), 0.01% (v/v) Tween-20. Compounds were diluted in assay buffer containing 4% dimethylsulfoxide (DMSO) just prior to the assay. […] The kinase reaction was initiated by adding 2 μL of 5 mM ATP (Sigma) in assay buffer. The final concentrations in the assay were 10 nM c-fms, 1 mM ATP, 5 mM MgCl2, 2% DMSO. Control reactions were ran in each plate: in positive and negative control wells, assay buffer (made 4% in DMSO) was substituted for the compound; in addition, positive control wells received 1.2 μL of 50 mM ethylenediaminetetraaceticacid (EDTA).
The plates were incubated at room temperature for 45 min. At the end of the incubation, the reaction was quenched with 1.2 μL of 50 mM EDTA (EDTA was not added to the positive control wells at this point; see above). Following a 5-min incubation, each well received 10 μL of a 1:1:3 mixture of anti-phosphotyrosine antibody, 10×, PTK green tracer, 10× (vortexed), FP dilution buffer, respectively (all from PanVera, cat. # P2837). The plate was covered, incubated for 30 min at room temperature and the fluorescence polarization was read on the Analyst.
The IC50 values shown in Table 1 are averages of three independent measurements.
With `CN1CCN(c2ccc(Nc3ncc4c(=O)c(C(N)=O)cn(-c5ccccc5)c4n3)cc2)CC1` [Cpd 13, 2-[4-(4-Methyl-piperazin-1-yl)-phenylamino]-5-oxo-8-phenyl-5,8-dihydro-pyrido[2,3-d]pyrimidine-6-carboxylic acid amide], the pIC50 was 6.14.

With `CN1CCN(c2ccc(Nc3ncc4c(=O)c(C(N)=O)cn(C5CCCCC5)c4n3)cc2)CC1` [Cpd 60, 8-Cyclohexyl-2-[4-(4-methyl-piperazin-1-yl)-phenylamino]-5-oxo-5,8-dihydro-pyrido[2,3-d]pyrimidine-6-carboxylic acid amide], the pIC50 is 7.46.

As for `NC(=O)c1cn(C2CCCCC2)c2nc(Nc3ccc(CCN4CCOCC4)cc3)ncc2c1=O` [Cpd 57, 8-Cyclohexyl-2-[4-(2-morpholin-4-yl-ethyl)-phenylamino]-5-oxo-5,8-dihydro-pyrido[2,3-d]pyrimidine-6-carboxylic acid amide], the pIC50 is 7.59.

For the molecule `CCOC(=O)c1cn(-c2ccc3c(c2)CCC3)c2nc(Nc3ccc(N4CCOCC4)cc3)ncc2c1=O` [Cpd 3, 8-Indan-5-yl-2-(4-morpholin-4-yl-phenylamino)-5-oxo-5,8-dihydro-pyrido[2,3-d]pyrimidine-6-carboxylic acid ethyl ester], the pIC50 was 5.54.

`NC(=O)c1cn(-c2ccc3c(c2)CCC3)c2nc(Nc3ccc(N4CCOCC4)cc3)ncc2c1=O` [Cpd 14, 8-indan-5-yl-2-(4-morpholin-4-yl-phenylamino)-5-oxo-5,8-dihydro-pyrido[2,3-d]pyrimidine-6-carboxylic acid amide]: the pIC50 was 7.72.

Consider `CN(C)CC(=O)N1CCC(c2ccc(Nc3ncc4c(=O)c(C(N)=O)cn(-c5ccc6c(c5)CCC6)c4n3)cc2)CC1` [Cpd 70, 2-{4-[1-(2-Dimethylamino-acetyl)-piperidin-4-yl]-phenylamino}-8-indan-5-yl-5-oxo-5,8-dihydro-pyrido[2,3-d]pyrimidine-6-carboxylic acid amide], for which the negative-log IC50 (pIC50) is 5.96.

`CN(C)CC(=O)N1CCC(c2ccc(Nc3ncc4c(=O)c(C(N)=O)cn(C5CCCCC5)c4n3)cc2)CC1` [Cpd 68, 8-Cyclohexyl-2-{4-[1-(2-dimethylamino-acetyl)-piperidin-4-yl]-phenylamino}-5-oxo-5,8-dihydro-pyrido[2,3-d]pyrimidine-6-carboxylic acid amide]: the pIC50 is 6.89.

Regarding `CNC(=O)c1cn(-c2ccc3c(c2)CCC3)c2nc(Nc3ccc(CCS(=O)(=O)N4CCOCC4)cc3)ncc2c1=O` [Cpd 35, 8-Indan-5-yl-2-{4-[2-(morpholine-4-sulfonyl)-ethyl]-phenylamino}-5-oxo-5,8-dihydro-pyrido[2,3-d]pyrimidine-6-carboxylic acid methyl amide], the pIC50 was 7.10.

With `CCNC(=O)c1cn(-c2ccc3c(c2)CCC3)c2nc(Nc3ccc(CN4CCN(C)CC4)cc3)ncc2c1=O` [Cpd 84, 8-Indan-5-yl-2-[4-(4-methyl-piperazin-1-ylmethyl)-phenylamino]-5-oxo-5,8-dihydro-pyrido[2,3-d]pyrimidine-6-carboxylic acid ethylamide], the pIC50 is 7.49.

As to `CN1CCN(c2ccc(Nc3cc4c(cn3)c(=O)c(C(N)=O)cn4-c3ccc4c(c3)CCC4)cc2)CC1` [Cpd 26, 1-Indan-5-yl-7-[4-(4-methyl-piperazin-1-yl)-phenylamino]-4-oxo-1,4-dihydro-[1,6]naphthyridine-3-carboxylic acid amide], the pIC50 was 7.25.

Regarding `CCOC(=O)c1cn(-c2ccc3c(c2)CCC3)c2nc(Nc3ccc(N4CCN(C)CC4)cc3)ncc2c1=O` [Cpd 1, 8-Indan-5-yl-2-[4-(4-methyl-piperazin-1-yl)-phenylamino]-5-oxo-5,8-dihydro-pyrido[2,3-d]pyrimidine-6-carboxylic acid ethyl ester], the negative-log IC50 (pIC50) was 6.55.

For `NC(=O)c1cn(-c2ccc3c(c2)CCC3)c2nc(Nc3cccc(CN4CCOCC4)c3)ncc2c1=O` [Cpd 24, 8-Indan-5-yl-2-(3-morpholin-4-ylmethyl-phenylamino)-5-oxo-5,8-dihydro-pyrido[2,3-d]pyrimidine-6-carboxylic acid amide], the negative logarithm of the IC50 (pIC50) was 7.74.

`CCOC(=O)c1cn(C2CCCCC2)c2nc(Nc3ccc(N4CCN(C)CC4)cc3)ncc2c1=O` [Cpd 17, 8-Cyclohexyl-2-[4-(4-methyl-piperazin-1-yl)-phenylamino]-5-oxo-5,8-dihydro-pyrido[2,3-d]pyrimidine-6-carboxylic acid ethyl ester]: the negative logarithm of the IC50 (pIC50) was 5.77.

In the case of `CCNC(=O)c1cn(-c2ccc3c(c2)CCC3)c2nc(Nc3cccc(C(=O)N(C)C)c3)ncc2c1=O` [Cpd 81, 2-(3-Dimethylcarbamoyl-phenylamino)-8-indan-5-yl-5-oxo-5,8-dihydro-pyrido[2,3-d]pyrimidine-6-carboxylic acid ethylamide], the pIC50 was 6.96.

On to `CNC(=O)c1cn(Cc2ccccc2)c2nc(Nc3ccc(N4CCN(C)CC4)cc3)ncc2c1=O` [Cpd 85, 8-Benzyl-2-[4-(4-methyl-piperazin-1-yl)-phenylamino]-5-oxo-5,8-dihydro-pyrido[2,3-d]pyrimidine-6-carboxylic acid methylamide], for which the negative logarithm of the IC50 (pIC50) was 6.38.

As to `CNC(=O)c1cn(-c2ccc3c(c2)CCC3)c2nc(Nc3ccc(N4CCNCC4)cc3)ncc2c1=O` [Cpd 41, 8-indan-5-yl-5-oxo-2-(4-piperazin-1-yl-phenylamino)-5,8-dihydro-pyrido[2,3-d]pyrimidine-6-carboxylic acid methyl amide], the pIC50 was 7.96.

`NC(=O)c1cn(C2CCCCC2)c2nc(Nc3ccc(CCS(=O)(=O)N4CCOCC4)cc3)ncc2c1=O` [Cpd 67, 8-Cyclohexyl-2-{4-[2-(morpholine-4-sulfonyl)-ethyl]-phenylamino}-5-oxo-5,8-dihydro-pyrido[2,3-d]pyrimidine-6-carboxylic acid amide]: the pIC50 is 6.92.

Turning to `CCNC(=O)c1cn(-c2ccc3c(c2)CCC3)c2nc(Nc3ccc(C4CCNCC4)cc3)ncc2c1=O` [Cpd 51, 8-Indan-5-yl-5-oxo-2-(4-piperidin-4-yl-phenylamino)-5,8-dihydro-pyrido[2,3-d]pyrimidine-6-carboxylic acid ethyl amide], the pIC50 was 7.60.

With `CCNC(=O)c1cn(C2CCCCC2)c2nc(Nc3ccc(N4CCN(C)CC4)cc3)ncc2c1=O` [Cpd 62, 8-Cyclohexyl-2-[4-(4-methyl-piperazin-1-yl)-phenylamino]-5-oxo-5,8-dihydro-pyrido[2,3-d]pyrimidine-6-carboxylic acid ethyl amide], the pIC50 is 6.72.

As for `CNC(=O)c1cn(-c2ccc3c(c2)CCC3)c2nc(Nc3ccc(N4CCN(C)CC4)cc3)ncc2c1=O` [Cpd 8, 8-indan-5-yl-2-[4-(4-methyl-piperazin-1-yl)-phenylamino]-5-oxo-5,8-dihydro-pyrido[2,3-d]pyrimidine-6-carboxylic acid methylamide], the pIC50 was 7.51.

Consider `CNC(=O)c1cn(-c2ccc3c(c2)CCC3)c2nc(Nc3cccc(N4CCN(C)CC4)c3)ncc2c1=O` [Cpd 38, 8-indan-5-yl-2-[3-(4-methyl-piperazin-1-yl)-phenylamino]-5-oxo-5,8-dihydro-pyrido[2,3-d]pyrimidine-6-carboxylic acid methyl amide], for which the pIC50 was 8.05.

In the case of `CCNC(=O)c1cn(-c2ccc3c(c2)CCC3)c2nc(Nc3ccc(CCN4CCOCC4)cc3)ncc2c1=O` [Cpd 29, 8-Indan-5-yl-2-[4-(2-morpholin-4-yl-ethyl)-phenylamino]-5-oxo-5,8-dihydro-pyrido[2,3-d]pyrimidine-6-carboxylic acid ethyl amide], the pIC50 is 7.48.

On to `CCNC(=O)c1cn(-c2ccc3c(c2)CCC3)c2nc(Nc3ccc(CCN4CCN(C)CC4)cc3)ncc2c1=O` [Cpd 48, 8-Indan-5-yl-2-{4-[2-(4-methyl-piperazin-1-yl)-ethyl]-phenylamino}-5-oxo-5,8-dihydro-pyrido[2,3-d]pyrimidine-6-carboxylic acid ethyl amide], for which the pIC50 is 7.49.

Take `CCOC(=O)c1cn(-c2ccc3c(c2)CCC3)c2nc(Nc3ccc(N(C)C)cc3)ncc2c1=O` [Cpd 4, 2-(4-Dimethylamino-phenylamino)-8-indan-5-yl-5-oxo-5,8-dihydro-pyrido[2,3-d]pyrimidine-6-carboxylic acid ethyl ester]: the negative-log IC50 (pIC50) was less than 5.00.

For `CC(C)NS(=O)(=O)CCc1ccc(Nc2ncc3c(=O)c(C(N)=O)cn(C4CCCCC4)c3n2)cc1` [Cpd 66, 8-Cyclohexyl-2-[4-(2-isopropylsulfamoyl-ethyl)-phenylamino]-5-oxo-5,8-dihydro-pyrido[2,3-d]pyrimidine-6-carboxylic acid amide], the negative-log IC50 (pIC50) was 6.92.

For `CCNC(=O)c1cn(-c2ccc3c(c2)CCC3)c2nc(Nc3ccc(N4CC(C)NC(C)C4)cc3)ncc2c1=O` (stereo not drawn) [Cpd 45, 2-[4-(3,5-Dimethyl-piperazin-1-yl)-phenylamino]-8-indan-5-yl-5-oxo-5,8-dihydro-pyrido[2,3-d]pyrimidine-6-carboxylic acid ethyl amide], the pIC50 is 7.92.

For the molecule `CCNC(=O)c1cn(-c2ccc3c(c2)CCC3)c2nc(Nc3ccc(N4CCNCC4)cc3)ncc2c1=O` [Cpd 42, 8-indan-5-yl-5-oxo-2-(4-piperazin-1-yl-phenylamino)-5,8-dihydro-pyrido[2,3-d]pyrimidine-6-carboxylic acid ethyl amide], the pIC50 was 7.80.
